Assay results taken from BindingDB's records for doi:10.1016/j.bmcl.2003.09.058 (Pharmacor, 2003).

Target: T1, Dimer of Gag-Pol polyprotein [501-599] (Human immunodeficiency virus 1, UniProt P03367)
T1 construct: 501-599
Assay: Protease Inhibition Assay
Conditions: pH 4.7; 30 °C
Description: HIV-1 protease activity was measured by a continuous fluorometric assay using the internally quenched fluorogenic substrate DABCYL-Ser-Gln-Asn-Tyr-Pro-Ile-Val-Gln-EDANS. The proteolytic activity can be monitored by the increase in fluorescence intensity, and the protease products were analyzed by HPLC.

Compound	Ki [nM]
Cc1ccc(S(=O)(=O)N(CC(C)C)[C@@H](CCCCNC(=O)Cc2ccccc2)C(=O)O)cc1 [(2S)-2-[(4-methylbenzene)(2-methylpropyl)sulfonamido]-6-(1-phenylacetamido)hexanoic acid]	> 300
Cc1ccc(S(=O)(=O)N(CC(C)C)[C@@H](CCCCNC(=O)CCCc2ccccc2)C(=O)O)cc1 [(2S)-2-[(4-methylbenzene)(2-methylpropyl)sulfonamido]-6-(4-phenylbutanamido)hexanoic acid]	> 300
Cc1ccc(S(=O)(=O)N(CC(C)C)[C@@H](CCCCNC(=O)c2ccccc2)C(=O)O)cc1 [(2S)-2-[(4-methylbenzene)(2-methylpropyl)sulfonamido]-6-(phenylformamido)hexanoic acid]	> 300
Cc1ccc(S(=O)(=O)N(CC(C)C)[C@@H](CCCCNC(=O)C2CC2c2ccccc2)C(=O)O)cc1 (stereo partly drawn) [(2S)-2-[(4-methylbenzene)(2-methylpropyl)sulfonamido]-6-[(2-phenylcyclopropyl)formamido]hexanoic acid]	> 300
Cc1ccc(S(=O)(=O)N(CC(C)C)[C@@H](CCCCNC(=O)/C=C/c2ccccc2)C(=O)O)cc1 [(2S)-2-[(4-methylbenzene)(2-methylpropyl)sulfonamido]-6-[(2E)-3-phenylprop-2-enamido]hexanoic acid]	> 300
Cc1ccc(S(=O)(=O)N(CC(C)C)[C@@H](CCCCNC(=O)C(Cc2ccccc2)C(C)(C)C)C(=O)O)cc1 (stereo partly drawn) [(2S)-6-(2-benzyl-3,3-dimethylbutanamido)-2-[(4-methylbenzene)(2-methylpropyl)sulfonamido]hexanoic acid]	> 300
Cc1ccc(S(=O)(=O)N(CC(C)C)[C@@H](CCCCNC(=O)OCc2ccccc2)C(=O)O)cc1 [(2S)-6-{[(benzyloxy)carbonyl]amino}-2-[(4-methylbenzene)(2-methylpropyl)sulfonamido]hexanoic acid]	> 300
